Assay results: ChEMBL document CHEMBL3576804, “Novel Potent Orthosteric Antagonist of ASIC1a Prevents NMDAR-Dependent LTP Induction” (J Med Chem, 2015)
Active and inactive are the calls of the source. No cut-off for these calls is given here.

What was measured:
[1] = biological target: T1, Acid-sensing ion channel 3 (Rattus norvegicus) (UniProt O35240); assay: Inhibition of ASIC3 in Wistar rat hippocampal neurons assessed as fast ASIC3-like currents level at 10 uM by patch clamp assay; set-up: scale not given: the % may be the effect or the level left
T1 sequence (whole entry): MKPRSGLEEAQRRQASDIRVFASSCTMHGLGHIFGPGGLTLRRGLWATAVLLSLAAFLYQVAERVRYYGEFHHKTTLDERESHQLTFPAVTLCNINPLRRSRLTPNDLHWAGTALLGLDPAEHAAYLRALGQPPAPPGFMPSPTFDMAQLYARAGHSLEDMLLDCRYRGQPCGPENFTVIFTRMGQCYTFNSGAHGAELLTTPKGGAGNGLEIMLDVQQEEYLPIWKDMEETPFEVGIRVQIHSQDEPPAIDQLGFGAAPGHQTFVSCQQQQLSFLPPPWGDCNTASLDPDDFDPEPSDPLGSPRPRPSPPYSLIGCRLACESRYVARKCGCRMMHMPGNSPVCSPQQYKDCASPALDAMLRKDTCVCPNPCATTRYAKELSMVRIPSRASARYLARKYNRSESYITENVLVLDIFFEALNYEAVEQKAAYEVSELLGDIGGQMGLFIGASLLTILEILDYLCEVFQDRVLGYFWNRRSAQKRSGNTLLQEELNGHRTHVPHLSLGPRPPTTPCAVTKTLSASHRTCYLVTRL

[2] = test system: Hippocampus; assay: Effect on NMDAR-independent long-term potentiation in Wistar rat hippocampal MF-CA3 region at 100 nM in presence of NMDA receptor blocker MK801 by patch clamp method (reference value: 118.3 +/- 9.6%); assay type: functional
[3] = test system: Hippocampus; assay: Inhibition of amplitude of inhibitory postsynaptic currents in Wistar rat hippocampal CA3-CA1 region at 100 nM by patch clamp method; assay type: functional, tissue-based
[4] = biological target: T2, Acid-sensing ion channel 1 (Homo sapiens) (UniProt P78348); assay: Inhibition of human ASIC1a endogenously expressed in HEK293 cells clamped at -100 mV gated ionic current at 100 nM by standard whole cell patch clamp assay; assay type: cell-based
T2 sequence (whole entry): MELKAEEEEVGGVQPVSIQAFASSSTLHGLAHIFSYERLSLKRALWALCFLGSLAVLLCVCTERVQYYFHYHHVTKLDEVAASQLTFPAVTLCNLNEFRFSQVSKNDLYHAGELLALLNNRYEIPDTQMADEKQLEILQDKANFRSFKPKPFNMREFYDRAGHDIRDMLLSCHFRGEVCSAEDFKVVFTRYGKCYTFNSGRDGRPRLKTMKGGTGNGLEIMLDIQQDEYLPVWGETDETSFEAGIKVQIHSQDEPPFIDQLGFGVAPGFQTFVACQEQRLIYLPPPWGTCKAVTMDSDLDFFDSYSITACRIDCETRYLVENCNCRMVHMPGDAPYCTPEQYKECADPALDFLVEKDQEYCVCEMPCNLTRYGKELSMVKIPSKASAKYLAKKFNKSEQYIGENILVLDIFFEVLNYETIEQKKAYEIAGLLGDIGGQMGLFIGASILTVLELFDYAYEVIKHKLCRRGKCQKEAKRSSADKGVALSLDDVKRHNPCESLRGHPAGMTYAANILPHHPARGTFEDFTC

[5] = biological target: T3, Acid-sensing ion channel 1 (Homo sapiens, UniProt P78348); assay: Inhibition of human ASIC1a endogenously expressed in HEK293 cells clamped at -100 mV gated ionic current at pH 6.7 by standard whole cell patch clamp assay; assay type: cell-based
T3 sequence (P78348 whole entry): T2 sequence (whole entry)

[6] = biological target: T3, Acid-sensing ion channel 1; assay: Orthosteric non-competitive inhibition of human ASIC1a endogenously expressed in HEK293 cells clamped at -100 mV gated ionic current assessed as EC50 for steady state activation at 100 nM by standard whole cell patch clamp assay (reference value: 6.57 +/- 0.01 pH); assay type: cell-based
[7] = biological target: T2, Acid-sensing ion channel 1 (Homo sapiens); assay: Inhibition of human ASIC1a endogenously expressed in HEK293 cells clamped at -100 mV gated ionic current at 10 uM at pH 6.7 by standard whole cell patch clamp assay; assay type: cell-based
[8] = biological target: T2, Acid-sensing ion channel 1 (Homo sapiens); assay: Inhibition of human ASIC1a endogenously expressed in HEK293 cells clamped at -20 mV gated ionic current at 100 nM by standard whole cell patch clamp assay; assay type: cell-based
[9] = biological target: T4, Acid-sensing ion channel 1 (Rattus norvegicus) (UniProt P55926); assay: Inhibition of ASIC1a in Wistar rat pyramidal hippocampal neurons assessed as reduction in main ionic currents at 1 uM by patch clamp assay
T4 sequence (whole entry): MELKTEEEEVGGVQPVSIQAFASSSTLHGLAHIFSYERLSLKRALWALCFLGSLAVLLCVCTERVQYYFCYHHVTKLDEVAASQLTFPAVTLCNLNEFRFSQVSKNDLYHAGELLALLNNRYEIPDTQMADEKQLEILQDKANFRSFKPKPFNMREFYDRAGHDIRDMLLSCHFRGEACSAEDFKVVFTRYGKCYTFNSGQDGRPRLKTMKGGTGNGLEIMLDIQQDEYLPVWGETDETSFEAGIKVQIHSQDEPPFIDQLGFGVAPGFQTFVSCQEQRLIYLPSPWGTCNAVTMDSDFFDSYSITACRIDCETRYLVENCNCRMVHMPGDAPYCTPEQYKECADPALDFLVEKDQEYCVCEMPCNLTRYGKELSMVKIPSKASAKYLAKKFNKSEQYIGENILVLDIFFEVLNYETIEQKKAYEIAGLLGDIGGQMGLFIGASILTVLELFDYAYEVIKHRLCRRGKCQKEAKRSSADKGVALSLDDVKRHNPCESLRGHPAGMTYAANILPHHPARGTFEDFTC

[10] = test system: Hippocampus; assay: Inhibition of amplitude of excitatory postsynaptic currents in Wistar rat hippocampal CA3-CA1 region at 100 nM by patch clamp method; assay type: functional, tissue-based
[11] = biological target: T3, Acid-sensing ion channel 1; assay: Inhibition of human ASIC1a endogenously expressed in HEK293 cells clamped at -100 mV gated ionic current at pH 5.0 by standard whole cell patch clamp assay; assay type: cell-based
[12] = biological target: T2, Acid-sensing ion channel 1 (Homo sapiens); assay: Reversible inhibition of human ASIC1a endogenously expressed in HEK293 cells clamped at -100 mV gated ionic current at pH 5.0 measured after drug wash out by standard whole cell patch clamp assay; assay type: cell-based
[13] = test system: Hippocampus; assay: Increase in amplitude of field excitatory postsynaptic potential in Wistar rat hippocampal CA3-CA1 region at 100 nM by patch clamp method; assay type: functional, tissue-based
[14] = biological target: T2, Acid-sensing ion channel 1 (Homo sapiens); assay: Inhibition of human ASIC1a endogenously expressed in HEK293 cells clamped at -100 mV gated ionic current at 10 uM at pH 5.0 by standard whole cell patch clamp assay; assay type: cell-based
[15] = biological target: T3, Acid-sensing ion channel 1; assay: Orthosteric non-competitive inhibition of human ASIC1a endogenously expressed in HEK293 cells clamped at -100 mV gated ionic current assessed as EC50 for steady state activation at 1 uM by standard whole cell patch clamp assay (reference value: 6.57 +/- 0.01 pH); assay type: cell-based
[16] = biological target: T2, Acid-sensing ion channel 1 (Homo sapiens); assay: Orthosteric non-competitive inhibition of human ASIC1a endogenously expressed in HEK293 cells clamped at -100 mV gated ionic current assessed as maximal evoked response for steady-state activation at 1 uM by standard whole cell patch clamp assay relative to untreated control; assay type: cell-based; set-up: scale not given: the % may be the effect or the level left
[17] = biological target: T2, Acid-sensing ion channel 1 (Homo sapiens); assay: Inhibition of human ASIC1a endogenously expressed in HEK293 cells clamped at -100 mV gated ionic current at 100 nM in presence of cellular membrane depolarization by standard whole cell patch clamp assay; assay type: cell-based
[18] = biological target: T2, Acid-sensing ion channel 1 (Homo sapiens); assay: Reversible inhibition of human ASIC1a endogenously expressed in HEK293 cells clamped at -100 mV gated ionic current at pH 6.7 measured after drug wash out by standard whole cell patch clamp assay; assay type: cell-based
[19] = test system: Hippocampus; assay: Effect on amplitude of field excitatory postsynaptic potential in Wistar rat hippocampal CA3-CA1 region at 100 nM by patch clamp method; assay type: functional
[20] = test system: Hippocampus; assay: Blocking of short-term potentiation in Wistar rat hippocampal CA3-CA1 regions at 100 nM by patch clamp method (Rvb =142.9 +/- 25%); assay type: functional
[21] = test system: Hippocampus; assay: Increase in slope of field excitatory postsynaptic potential in Wistar rat hippocampal CA3-CA1 region at 100 nM by patch clamp method; assay type: functional, tissue-based
[22] = biological target: T2, Acid-sensing ion channel 1 (Homo sapiens); assay: Orthosteric non-competitive inhibition of human ASIC1a endogenously expressed in HEK293 cells clamped at -100 mV gated ionic current assessed as maximal evoked response for steady-state activation at 10 nM by standard whole cell patch clamp assay relative to untreated control; assay type: cell-based; set-up: scale not given: the % may be the effect or the level left
[23] = biological target: T4, Acid-sensing ion channel 1 (Rattus norvegicus); assay: Inhibition of ASIC1a in Wistar rat hippocampal neurons assessed as ASIC1a-like currents level at 10 uM by patch clamp assay; set-up: scale not given: the % may be the effect or the level left
[24] = test system: Hippocampus; assay: Increase in short-term potentiation in Wistar rat hippocampal CA3-CA1 region at 100 nM by patch clamp method (reference value: 225.9 +/- 12.4%); assay type: functional
[25] = biological target: T2, Acid-sensing ion channel 1 (Homo sapiens); assay: Orthosteric non-competitive inhibition of human ASIC1a endogenously expressed in HEK293 cells clamped at -100 mV gated ionic current assessed as maximal evoked response for steady-state activation at 100 nM by standard whole cell patch clamp assay relative to untreated control; assay type: cell-based; set-up: scale not given: the % may be the effect or the level left
[26] = biological target: T2, Acid-sensing ion channel 1 (Homo sapiens); assay: Inhibition of human ASIC1a endogenously expressed in HEK293 cells clamped at -100 mV gated ionic current at 100 nM at pH 6.7 by standard whole cell patch clamp assay; assay type: cell-based
[27] = biological target: T5, Acid-sensing ion channel 2 (Rattus norvegicus) (UniProt Q62962); assay: Inhibition of ASIC2 in Wistar rat hippocampal neurons assessed as slow ASIC2-like currents level at 10 uM by patch clamp assay; set-up: scale not given: the % may be the effect or the level left
T5 sequence (whole entry): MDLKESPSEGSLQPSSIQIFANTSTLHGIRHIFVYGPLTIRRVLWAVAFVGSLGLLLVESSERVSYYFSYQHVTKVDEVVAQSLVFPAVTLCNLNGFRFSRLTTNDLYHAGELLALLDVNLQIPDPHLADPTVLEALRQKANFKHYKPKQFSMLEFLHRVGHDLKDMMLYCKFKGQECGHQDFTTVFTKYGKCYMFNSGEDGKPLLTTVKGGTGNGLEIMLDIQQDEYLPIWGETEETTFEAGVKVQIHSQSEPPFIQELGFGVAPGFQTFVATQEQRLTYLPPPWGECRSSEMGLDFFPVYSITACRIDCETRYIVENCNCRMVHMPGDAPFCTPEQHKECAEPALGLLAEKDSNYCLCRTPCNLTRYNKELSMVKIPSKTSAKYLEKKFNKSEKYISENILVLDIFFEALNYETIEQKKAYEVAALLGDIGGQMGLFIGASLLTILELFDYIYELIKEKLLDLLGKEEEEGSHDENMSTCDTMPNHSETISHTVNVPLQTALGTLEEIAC

[28] = test system: Hippocampus; assay: Effect on slope of field excitatory postsynaptic potential in Wistar rat hippocampal CA3-CA1 region at 100 nM by patch clamp method; assay type: functional
[29] = biological target: T4, Acid-sensing ion channel 1 (Rattus norvegicus); assay: Inhibition of ASIC1a in Wistar rat pyramidal hippocampal neurons assessed as ASIC1a-like currents level at 100 nM by patch clamp assay; set-up: scale not given: the % may be the effect or the level left
[30] = biological target: T2, Acid-sensing ion channel 1 (Homo sapiens); assay: Inhibition of human ASIC1a endogenously expressed in HEK293 cells clamped at -100 mV gated ionic current at 100 nM at pH 5.0 by standard whole cell patch clamp assay; assay type: cell-based
[31] = biological target: T3, Acid-sensing ion channel 1; assay: Orthosteric non-competitive inhibition of human ASIC1a endogenously expressed in HEK293 cells clamped at -100 mV gated ionic current assessed as EC50 for steady state activation at 10 nM by standard whole cell patch clamp assay (reference value: 6.57 +/- 0.01 pH); assay type: cell-based
[32] = biological target: T2, Acid-sensing ion channel 1 (Homo sapiens); assay: Inhibition of human ASIC1a endogenously expressed in HEK293 cells clamped at -100 mV gated ionic current at 10 uM by standard whole cell patch clamp assay; assay type: cell-based
[33] = biological target: T2, Acid-sensing ion channel 1 (Homo sapiens); assay: Inhibition of human ASIC1a endogenously expressed in HEK293 cells clamped at -20 mV gated ionic current at 10 uM by standard whole cell patch clamp assay; assay type: cell-based
[34] = biological target: T2, Acid-sensing ion channel 1 (Homo sapiens); assay: Inhibition of human ASIC1a endogenously expressed in HEK293 cells clamped at -100 mV gated ionic current at 10 uM in presence of cellular membrane depolarization by standard whole cell patch clamp assay; assay type: cell-based

## CCN(CC)CCN(Cc1ccc(Cl)cc1)c1ccc2cc(C(=N)N)c(=O)oc2c1
[1]
  Activity: 45.2%
[2]
  Activity: 117%
[3]
  inhibition: inactive
[4]
  inhibition: 42.1%
[5]
  IC50: 0.0274 µM
[6]
  EC50: 6.4 pH
[7]
  inhibition: 2.5%
[8]
  inhibition: 45.8%
[9]
  inhibition: inactive
[10]
  inhibition: inactive
[11]
  IC50: 7.34 µM
[12]
  inhibition: Active
[13]
  Activity: Active
[14]
  inhibition: 44.8%
[15]
  EC50: 6.18 pH
[16]
  Activity: 72.2%
[17]
  inhibition: Active
[18]
  inhibition: Active
[19]
  Activity: 104.6%
[20]
  Activity: 106.2%
[21]
  Activity: Active
[22]
  Activity: 93.2%
[23]
  Activity: 48.3%
[24]
  Activity: 193.2%
[25]
  Activity: 83.9%
[26]
  inhibition: 23.7%
[27]
  Activity: 99.3%
[28]
  Activity: 103.4%
[29]
  Activity: 9.39%
[30]
  inhibition: 98.6%
[31]
  EC50: 6.5 pH

## N=C(N)NC(=O)c1nc(Cl)c(N)nc1N
[32]
  inhibition: 41.3%
[33]
  inhibition: 60.7%
[34]
  inhibition: inactive
